US20200268753A1, “PERK AND IRE-1A INHIBITORS AGAINST NEURODEVELOPMENTAL DISORDERS” (priority 2017, published 2020)

Key:
[1] = test system: ZIKV; assay: ZIKV-induced microcephaly and apoptosis after intracerebroventricular injection in mouse embryos (E12.5, analysed E18.5); type: in vivo; settings: for ZIKV-induced microcephaly / microcephalic phenotype: injected with ZIKV ICV at E12.5, E18.5 brains, vs vehicle
[2] = test system: UPR effectors (PERK-ATF4 arm, IRE-1/Xbp1); assay: qRT-PCR of UPR effector expression levels in ZIKV-infected embryonic mouse brains; type: in vivo
From the text: (§1) To test the efficacy of Salubrinal and ISRIB (PERK inhibitors) in decreasing the expression levels of UPR effectors after ZIKV infection we intracerebroventricularly injected ZIKV+Salubrinal (or ISRIB) in E12.5 mouse cortices and collected brains at E18.5. These samples were stored in Trizol (Invitrogen) and RNA was extracted according to manufacturer instructions. RNA was then retro-transcribed and cDNA was used to perform qRT-PCR to quantify ZIKV and UPR effectors levels in each sample. […] The expression levels of several PERK pathway effectors were analyzed: mATF4 (FIG. 6B), mATF5 (FIG. 6C), mCHAC1 (FIG. 6D). […] (Kruskal-Wallis test, *p<0.05, ** p<0.005).
(§2) To test the efficacy of Resveratrol (IRE1a inhibitor) in decreasing the expression levels of UPR effectors after ZIKV infection we intracerebroventricularly injected ZIKV+Resveratrol in E12.5 mouse cortices and collected brains at E18.5. These samples were stored in Trizol (Invitrogen) and RNA was extracted according to manufacturer instructions. RNA was then retro-transcribed and cDNA was used to perform qRT-PCR to quantify ZIKV and UPR effectors levels in each sample. […] The expression levels of several PERK pathway effectors were analyzed: mATF4 (FIG. 7B), mATF3 (FIG. 7C), mXbp1 spliced/unspliced and mXbp1 tot (FIG. 7D), mChop (FIG. 7E).
Total RNA was obtained from micro-dissected embryonic mouse brains, and neuronal progenitors seeded in 6 well-plate culture dishes after application of Trizol according to the manufacturer's protocol (Ambion-Life Technologies, 15596018).
The quantity and quality of RNA were assessed by NanoDrop 1000 (Nano-Drop Technologies) before cDNA synthesis by SuperScript III reverse transcriptase (Invitrogen), as used according to the manufacturer's instructions. The resulting cDNA was used for quantitative PCR, using Faststart Universal SYBR Green Master (Roche) in an Applied Biosystem 7900HT Fast Real-Time PCR detection system (Applied Biosystems, Foster city, USA). The following genes of interest (GOI) were normalized to the reference genes β-actin, Glyceraldehyde-3-Phosphate dehydrogenase (GAPDH), hypoxanthine phosphoribosyltransferase 1 (HPRT1), and 36b4 ribosomal protein (36b4). Tested genes were GAPDH, HPRT1, 36B4, ACTIN, ZIKA, Atf4, Atf3, Atf5, Chac1, Chop, Sesn2, Tbr2, Neurod6, Tubb3, hPDI, Slc7a3, MX1, TLR3, HRD1, OCT4, NESTIN, PAX6, SOX1 and mPDI.

[3] = test system: ZIKV; assay: qRT-PCR quantification of ZIKV copies in ICV-injected embryonic mouse brains; type: in vivo; settings: for number of ZIKV copies: ICV co-injection with ZIKV at E12.5, brains at E18.5, vs ZIKV+DMSO, Kruskal-Wallis test
From the text: as §1, §2
The number of Zika particles in the samples analyzed by qRT-PCR (see above) was calculated as previously described (Lanciotti et al, 2008). Briefly, a standard curve was created by performing serial dilutions of a plasmid containing 76-bp long sequence from the Zika genome (from nt 1,086 to 1,162; GCF_000882815.3, as indicated in Nature Neurosciences (2018) Gladwyn et al.) and querying these dilutions by qRT-PCR analysis.
This standard curve allows the conversion of Cp of samples queried for Zika virus (as described above) into N^o of Zika copies/a L. We used the following formula to link this quantification to the amount of RNA retrotranscribed for the analysis of each sample: […]
Finally, the N^o of copies/μg RNA was divided for the relative concentration of each sample analyzed by qRT-PCR (since for each analyzed gene in this study we performed a relative quantification compared to the controls of the same experiment). The relative concentration of each sample is automatically calculated by the LightCycler480 and its accompanying software.

[4] = test system: ZIKV; assay: Neurogenic balance after intracerebroventricular ZIKV injection and in utero GFP electroporation of mouse embryos; type: in vivo; settings: co-administered with ZIKV ICV at E12.5, second injection at electroporation; E14.5; vs Mock-DMSO and Mock-PERKi
Procedure: To test whether the deregulation of UPR induced by ZIKV-infection results in the impairment of this neurogenic balance, we performed ICV injection of ZIKV in E12.5 mouse brains, followed by in utero electroporation of GFP-expressing plasmids one day later to fate-map APs at E14.5 (APs, immature IPs and IPs, neurons) (FIGS. 3A-B). The phenotype of the “direct progeny” of targeted APs was then assessed by immunohistochemistry (FIGS. 3B-D). In order to characterize the fate of GFP+ cells, we subdivided them into APs (Sox2+, Tbr2− or Tbr2−, Tbr1−), immature IPs (Sox2+, Tbr2+ or Tbr2+, Tbr1−), IPs (Sox2−, Tbr2+ or Tbr2+, Tbr1+), or neurons (Sox2−, Tbr2− or Tbr2−, Tbr1+).
To assess if ZIKV directly impacts the neurogenic balance through UPR deregulation in GFP labeled APs, we co-injected GSK2656157 (a PERK inhibitor, named PERKi) with ZIKV into the lateral ventricles of E12.5 embryos and repeated a second PERKi injection at the time of electroporation.
Embryonic (E) 14.5, E16.5 and E18.5 mouse brains were dissected in 0.1M phosphate-buffered saline pH7.4 (PBS), and were fixed in 4% paraformaldehyde (PFA in PBS) for one hour at room temperature, whereas human neural stem cells (hNSCs) were fixed in 4% PFA at 4° C. for 10 minutes. […]

[5] = test system: ZIKV; assay: Intraplacental (IPL) ZIKV injection in pregnant NMRI mice, cortical defects at E18.5; type: in vivo, mouse; settings: intraplacental ZIKV at E12.5, co-injection
[6] = high doses, ICV co-injection with ZIKV at E12.5, brains at E18.5, vs ZIKV+DMSO
[7] = ZIKV ICV at E12.5, E18.5, compared to vehicle treatment
[8] = single injection of 50M at time of infection (E12.5), E18.5

SMILES | ZIKV-induced microcephaly / microcephalic phenotype [1] | number of ZIKV copies [3] | mATF4 expression level [2, 6] | mATF5 expression level [2, 6] | mCHAC1 expression level [2, 6] | other results
Cc1cc(=O)oc2c(C=O)c(O)ccc12 [4μ8C] | rescued the microcephalic phenotype |  |  |  |  | activation of the PERK-ATF4 UPR arm ([2]; ZIKV-infected mouse brains): prevented activation
O=C(COc1ccc(Cl)cc1)NC1CCC(NC(=O)COc2ccc(Cl)cc2)CC1 (centres unmarked) [ISRIB] |  | unaffected compared to controls | marked decrease | marked decrease | marked decrease | 
Cc1cccc(CC(=O)N2CCc3c2ccc(-c2cn(C)c4ncnc(N)c24)c3F)n1 [PERKi] | reduced ZIKV-induced microcephaly |  |  |  |  | imbalance between direct and indirect neurogenesis (proportions of APs, newborn IPs, IPs and neurons) [4]: remarkably corrected the imbalance between direct and indirect neurogenesis; brain weight [1, 7]: significant improvement; cortical dimensions (brain width, length) [1, 7]: significant improvement; numbers of neurons sitting in different cortical layers [1, 7]: significant improvement; ER stress [1, 8]: decreased; apoptosis (ac-caspase 3) [1, 8]: decreased; ZIKV-induced cortical defects (cortical thickness, neuronal apoptosis, cytoarchitecture) [5]: rescued; ZIKV particles ([3]; ZIKV-infected mouse brains treated with PERKi): not associated with a reduction
Oc1ccc(C=Cc2cc(O)cc(O)c2)cc1 [Resveratrol] |  | unaffected compared to controls | marked decrease |  |  | mATF3 expression level [2, 6]: marked decrease; mChop expression level [2, 6]: marked decrease
O=C(/C=C/c1ccccc1)NC(NC(=S)Nc1cccc2cccnc12)C(Cl)(Cl)Cl (centres unmarked) [Salubrinal] |  | unaffected compared to controls | marked decrease | marked decrease | marked decrease | 
